Experimental data taken from article PMC4537050, “A long pentraxin-3-derived pentapeptide for the therapy of FGF8b-driven steroid hormone-regulated cancers” (Oncotarget, 2015).

Tests used:
TRAMP-C2 tumor grafts = assay: In vivo tumor therapy study, TRAMP-C2 tumors; design: species or system C57BL/6 male mice; conditions: s.c. TRAMP-C2 cells, i.p. 100 mg/kg every other day
Procedure: Eight week old C57BL/6 male mice were injected s.c. with 8×10^6 TRAMP-C2 cells, and eight week old athymic Nu/Nu male mice were injected s.c. with 5×10^6 S115 cells. All injections were performed in 200 μl total volume of PBS into the dorsolateral flank. When tumors were palpable treatment was performed every other day by i.p. injection of ARPCA, ARPVA (both at 100 mg/kg) or vehicle (PBS) in 100 μl final volume. Tumors were measured in two dimensions and tumor volume was calculated according to the formula V=(D × d^2)/2, where D and d are the major and minor perpendicular tumor diameters, respectively. At the end of the experimental procedure tumors were harvested, weighted and photographed.

[1] = test system: chick embryo chorioallantoic membrane (CAM); assay: Chick embryo CAM assay with growth factor alginate implants; format: in vivo; conditions: vessels counted at day 14
Procedure: (§1) Alginate plugs containing vehicle, FGF8b (4.5 pmoles/embryo), VEGF-A (4.5 pmoles/embryo) or S115 cells (2.5×10^4/embryo) in the absence or presence of ARPCA (80 or 140 pmoles/embryo) or ARPVA (140 pmoles/embryo) were placed on the CAM of fertilized white leghorn chicken eggs at day 11 of incubation. At day 14, newly formed blood microvessels converging toward the implant were counted by two observers in a double-blind fashion at 5x magnification under a stereomicroscope (STEMI-SR, x2/0.12; Zeiss) as described.

FGF4 = target: T1, FGF4 (Homo sapiens, UniProt P08620); assay: SPR analysis of FGF/ARPCA interaction, FGF4; format: binding; conditions: immobilized FGF4
T1 sequence (P08620 31-206): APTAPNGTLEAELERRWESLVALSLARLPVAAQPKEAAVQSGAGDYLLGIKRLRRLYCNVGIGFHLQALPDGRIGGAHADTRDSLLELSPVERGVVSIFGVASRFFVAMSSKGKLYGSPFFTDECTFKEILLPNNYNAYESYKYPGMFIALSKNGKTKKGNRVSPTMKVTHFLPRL

[2] = test system: FGFR1 phosphorylation and ERK1/2 activation in S115 cells; assay: Western blot of FGF8b-treated S115 cells; format: cell-based, mouse; conditions: 30 ng/ml FGF8b, 100 μM peptide, 20 minutes
Procedure: S115 cells were treated with FGF8b (30ng/ml) in the presence or absence of ARPCA (100 μM) or ARPVA (100 μM). After 20 minutes of incubation cell samples were washed in cold PBS and homogenized in RIPA buffer containing 1% Triton-X100, 0.2% BriJ, 1 mM sodium orthovanadate and protease inhibitors cocktail. Protein concentrations were determined using the Bradford protein assay (Bio-Rad Laboratories, Milano, Italy). Blotting analysis was performed using anti-FGFR1, anti-phospho FGFR1 and anti-phosphoERK1/2 antibodies (Santa Cruz Biotechnology, Santa Cruz, CA, USA). Equal loading of the lanes was confirmed by immunoblotting with anti–αTubulin (Sigma-Aldrich) antibody.

[3] = In vivo ARPCA toxicity studies
Procedure: (§2) Eight week-old C57BL/6 mice were treated i.p. with 100 mg/kg of ARPCA every other day for two weeks. During this period, animals were weighted for body weight variation analysis. At the end of treatment, whole blood and serum were harvested and analysed for blood components, biochemical serum parameters and circulating levels of FGF23. The serum levels of FGF23 were assessed by ELISA (Uscn Life Science Inc., Wuhan, PRC, Asia) according to manufacturer's instructions. Untreated mice were used as reference/control.

S115 cells = assay: S115 cell proliferation assay; format: cell-based, mouse; conditions: 30 ng/ml FGF8b or 10 nM DHT, 48 h, viable cell counting
Procedure: HUVECs were seeded at 18000 cells/cm^2 in medium containing 2.5% FBS and stimulated with 30 ng/ml FGF8b in the absence or presence of increasing concentrations of ARPCA or ARPVA. S115 cells were seeded at 15000 cells/cm^2 in medium containing 4% hormone-deprived dextran-coated charcoal-stripped heat inactivated FBS, followed by 24 h serum starvation in 1:1 mixture of serum-free Ham's F12 and DMEM. Cells were stimulated for 48 h with 30 ng/ml FGF8b or 10 nM DHT in the presence or absence of different concentrations of ARPCA or ARPVA (as specified in the corresponding figures). Viable cell counts were obtained by the counting function of the MACSQuant® Analyzer (Miltenyi Biotec, Bergisch-Gladbach, Germany, EU).

[4] = test system: S115 cells grafted onto the chick embryo CAM; assay: CAM assay with DHT-treated S115 cell grafts; format: in vivo; conditions: 2.5 × 10^4 cells/embryo; ARPCA 80 or 140 pmoles/embryo, ARPVA 140 pmoles/embryo; day 14
Procedure: as §1

[5] = test system: FGFR1 phosphorylation in HUVECs; assay: FGFR1 phosphorylation in FGF8b-stimulated HUVECs (immunofluorescence); format: cell-based, human; conditions: 30 ng/ml FGF8b, 60 μM peptide
Procedure: HUVECs were seeded in Ibidi® μ-Slide 8 wells (Ibidi, Martinsried, Germany, EU) at a density of 30000 cells/cm^2, starved in 2.5% FBS for 24 h and stimulated for 20 minutes with 30 ng/ml of FGF8b in the absence or presence of ARPCA or ARPVA. Following stimulation, cells were washed twice in PBS, fixed in cold acetone for 5 minutes and permeabilized with 0.2% Triton-X100 in PBS for 2 minutes at room temperature (RT). After washing in PBS, cells were blocked for 10 minutes at RT in 1% BSA and then incubated with rabbit anti-pFGFR1 or rabbit anti-FGFR1 antibodies (Santa Cruz Biotechnology) for 1 h at RT. After washing in PBS, cells were incubated with AlexaFluor 594-conjugated anti-rabbit antibody (Invitrogen) and DAPI for 30 minutes at RT. Finally, cells were examined under a Zeiss Fluorescence Axiovert 200M microscope (Carl Zeiss).

[6] = mouse, in vivo, ip, 100 mg/kg
Procedure: as §2

FGF6 = target: T2, FGF6 (Homo sapiens, UniProt P10767); assay: SPR analysis of FGF/ARPCA interaction, FGF6; format: binding; conditions: immobilized FGF6
T2 sequence (P10767 38-208): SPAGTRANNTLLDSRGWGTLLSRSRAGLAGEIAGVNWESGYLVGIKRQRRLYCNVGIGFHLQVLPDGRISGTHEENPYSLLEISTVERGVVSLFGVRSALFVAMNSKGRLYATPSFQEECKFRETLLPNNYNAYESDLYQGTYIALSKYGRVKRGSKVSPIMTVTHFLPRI

FGF3 = target: T3, FGF3 (Homo sapiens, UniProt P11487); assay: SPR analysis of FGF/ARPCA interaction, FGF3; format: binding; conditions: immobilized FGF3
T3 sequence (P11487 18-239): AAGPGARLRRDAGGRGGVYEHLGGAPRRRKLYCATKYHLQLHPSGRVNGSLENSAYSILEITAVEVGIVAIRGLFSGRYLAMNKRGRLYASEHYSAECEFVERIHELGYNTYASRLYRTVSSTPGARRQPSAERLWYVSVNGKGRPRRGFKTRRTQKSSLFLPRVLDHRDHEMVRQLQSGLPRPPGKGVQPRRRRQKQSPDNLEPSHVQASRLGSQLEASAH

Ac-ARPCA-NH2 [ARPCA, Ac-ARPCA-NH2]
growth of TRAMP-C2 tumor grafts, long-term assay (TRAMP-C2 tumor grafts): inhibited the growth of TRAMP-C2 tumor grafts | angiogenic response elicited by FGF8b in the CAM ([1]; 4.5 pmoles FGF8b/plug, ARPCA 80 or 140 pmoles, ARPVA 140 pmoles): significantly reduced | angiogenic response elicited by VEGF-A in the CAM ([1]; 4.5 pmoles VEGF-A/plug): No inhibitory effect | Kd, FGF4 (FGF4): n.b. | FGFR1 phosphorylation in S115 cells treated with FGF8b [2]: inhibits FGFR1 phosphorylation | MAPK ERK1/2 activation in S115 cells treated with FGF8b [2]: inhibits | body weight ([3]; i.p. 100 mg/kg every other day for two weeks): did not affect | hematologic parameters, blood serum components and FGF23 serum levels (in words) ([3]; long-term administration, i.p. 100 mg/kg every other day): did not affect | mitogenic response of S115 cells to FGF8b or DHT (S115 cells): impairs the mitogenic response | neovascular response elicited by DHT-pretreated S115 cells on the CAM [4]: abolished | FGFR1 phosphorylation triggered by FGF8b in HUVECs [5]: efficiently impairs FGFR1 phosphorylation | systemic toxic effect in treated animals [6]: absence of any systemic toxic effect | Kd, FGF6 (FGF6): n.b. | Kd, FGF3 (FGF3): n.b.
